Common to all, as to assay: two-electrode voltage clamp, oocytes, G
What all share (type): cell-based
Background: Two-electrode voltage clamp holds a large cell at a set potential and records current.

Experiment [1] addresses Shaker KV channel (Shaker H4, Δ6-46; "WT Shaker KV channel") (Drosophila melanogaster, UniProt P08510, DEL6-46/R362Q).
The target of experiment [2] is Shaker KV channel (Shaker H4, Δ6-46; "WT Shaker KV channel") (Drosophila melanogaster, UniProt P08510, DEL6-46/L358R/R362Q).
Experiment [3] deals with T1, human M channel (hKV7.2/7.3) (Homo sapiens, UniProt O43525+O43526).
T1 sequence (O43526 whole entry): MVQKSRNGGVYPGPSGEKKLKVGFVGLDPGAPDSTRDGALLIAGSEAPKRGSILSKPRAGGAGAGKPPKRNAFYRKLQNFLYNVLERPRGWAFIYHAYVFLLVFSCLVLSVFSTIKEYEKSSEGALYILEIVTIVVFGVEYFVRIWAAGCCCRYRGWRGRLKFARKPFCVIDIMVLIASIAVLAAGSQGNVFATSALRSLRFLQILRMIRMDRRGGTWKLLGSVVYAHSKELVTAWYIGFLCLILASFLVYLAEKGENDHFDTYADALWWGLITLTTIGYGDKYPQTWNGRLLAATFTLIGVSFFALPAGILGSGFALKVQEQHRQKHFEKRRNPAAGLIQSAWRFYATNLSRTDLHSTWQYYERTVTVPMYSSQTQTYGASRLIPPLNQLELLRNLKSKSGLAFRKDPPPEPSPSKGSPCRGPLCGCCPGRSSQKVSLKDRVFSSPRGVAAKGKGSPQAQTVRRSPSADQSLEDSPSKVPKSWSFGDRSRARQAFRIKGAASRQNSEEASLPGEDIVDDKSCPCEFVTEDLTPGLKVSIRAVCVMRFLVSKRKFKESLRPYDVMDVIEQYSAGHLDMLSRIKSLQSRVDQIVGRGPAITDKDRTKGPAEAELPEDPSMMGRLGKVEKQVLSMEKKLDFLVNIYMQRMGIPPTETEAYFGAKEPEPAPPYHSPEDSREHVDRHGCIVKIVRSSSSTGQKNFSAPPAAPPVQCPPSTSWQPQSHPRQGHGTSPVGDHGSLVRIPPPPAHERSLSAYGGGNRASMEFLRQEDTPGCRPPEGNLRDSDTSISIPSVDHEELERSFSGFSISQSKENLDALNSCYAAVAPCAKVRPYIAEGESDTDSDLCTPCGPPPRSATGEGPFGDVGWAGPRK
T1 sequence (O43525 whole entry): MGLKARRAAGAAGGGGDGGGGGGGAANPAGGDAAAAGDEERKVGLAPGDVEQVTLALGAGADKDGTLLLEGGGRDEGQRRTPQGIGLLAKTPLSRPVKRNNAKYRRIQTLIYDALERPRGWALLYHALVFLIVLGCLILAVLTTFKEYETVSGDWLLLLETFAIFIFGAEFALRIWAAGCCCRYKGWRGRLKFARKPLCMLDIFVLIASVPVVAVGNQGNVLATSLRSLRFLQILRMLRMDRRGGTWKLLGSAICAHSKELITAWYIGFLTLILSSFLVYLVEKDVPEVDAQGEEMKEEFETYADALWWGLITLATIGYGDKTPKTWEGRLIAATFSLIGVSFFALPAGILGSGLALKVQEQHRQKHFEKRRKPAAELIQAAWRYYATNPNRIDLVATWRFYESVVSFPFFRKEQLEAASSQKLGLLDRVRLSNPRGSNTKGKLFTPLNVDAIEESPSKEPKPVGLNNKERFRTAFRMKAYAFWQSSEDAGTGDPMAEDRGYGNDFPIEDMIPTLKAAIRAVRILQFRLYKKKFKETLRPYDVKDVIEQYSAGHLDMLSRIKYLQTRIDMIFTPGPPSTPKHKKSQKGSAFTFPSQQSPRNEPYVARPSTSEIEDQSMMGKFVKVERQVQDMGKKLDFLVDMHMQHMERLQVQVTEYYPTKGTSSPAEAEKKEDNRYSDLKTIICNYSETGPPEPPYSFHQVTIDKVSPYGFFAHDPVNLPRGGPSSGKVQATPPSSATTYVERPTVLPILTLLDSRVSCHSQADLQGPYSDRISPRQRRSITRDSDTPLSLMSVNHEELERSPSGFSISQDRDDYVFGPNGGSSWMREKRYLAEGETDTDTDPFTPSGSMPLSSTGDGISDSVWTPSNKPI
For experiment [4], the target named is T1, human M channel (hKV7.2/7.3). Conditions: 100 µM; pH 7.4, room temperature; not significant.

Counter-ions that a name gives are not always drawn.

The term EC50 denotes the concentration at which the effect is half-maximal. A lower EC50 goes with higher potency in that assay. Regarding `CC(C)c1ccc2c(c1)CC[C@H]1[C@](C)(COS(=O)(=O)O)CCC[C@]21C` [Wu161, ((1R,4aS,10aR)-7-isopropyl-1,4a-dimethyl-1,2,3,4,4a,9,10,10a-octahydrophenanthren-1-yl)methyl hydrogen sulfate], the EC50 in experiment [1] worked out at 36 µM; in experiment [2] it was 70 µM; in experiment [3], 62 ± 15 µM.
`C[C@@]1(COS(=O)(=O)O)CCC[C@]2(C)c3cc(Cl)c(Cl)c(Cl)c3CC[C@@H]12` [Wu181, ((1R,4aS,10aR)-6,7,8-trichloro-1,4a-dimethyl-2,3,4,9,10,10a-hexahydrophenanthrene-1-yl)methyl hydrogen sulfate] came in with an EC50 in experiment [3] of 12 ± 3 µM.
Consider `CC(C)c1ccc2c(c1)CC[C@H]1[C@](C)(CNS(C)(=O)=O)CCC[C@]21C` [Wu110, N-(((1R,4aS,10aR)-7-isopropyl-1,4a-dimethyl-1,2,3,4,4a,9,10,10a-octahydrophenanthren-1-yl)methyl)methanesulfonamide], for which, in experiment [4], the “ΔV ± SEM” value is “–1.5 ± 0.4 mV”.

These data come from article PMC5940250 (The Journal of General Physiology, 2018).
